Measurements reported in patent publication US9156811B2 (priority 2008, dated 2015).
Where two headings read alike, the source gives them in different places.

How the values were obtained:
[1] = target: T. brucei N-myristoyl transferase (Trypanosoma brucei brucei (strain 927/4 GUTat10.1), UniProt Q388H8); assay: biochemical; format: biochemical
[2] = test system: Trypanosome (T. brucei brucei); assay: In-vitro antitrypanosomal efficacy assay (cell growth, resazurin); format: cell-based
Procedure: To column 12, 200 μl media was added to provide a no cells control. Plates were then incubated at 37° C. in an atmosphere of 5% CO2 for 69 hours, before the addition of 20 μl of 500 μM rezasurin solution, and a further incubation period of 4 hours. […] Concentration effect curves were fitted using non-linear regression using XLFit 4.2 and EC50 values determined.

[3] = value with no enzyme tag in the cell, taken as T. brucei NMT, read-out: IC50 (μM) NMT Enzyme
[4] = value printed without enzyme tag in the NMT Enzyme column (taken as T. brucei NMT), read-out: IC50 (μM) NMT Enzyme
[5] = T. brucei NMT, value without parentheses, read-out: IC50 (μM) NMT Enzyme (T. brucei NMT)
[6] = T. brucei brucei, blood stream form, variant 221

T. brucei N-myristoyl transferase, sequence (Q388H8 1-446): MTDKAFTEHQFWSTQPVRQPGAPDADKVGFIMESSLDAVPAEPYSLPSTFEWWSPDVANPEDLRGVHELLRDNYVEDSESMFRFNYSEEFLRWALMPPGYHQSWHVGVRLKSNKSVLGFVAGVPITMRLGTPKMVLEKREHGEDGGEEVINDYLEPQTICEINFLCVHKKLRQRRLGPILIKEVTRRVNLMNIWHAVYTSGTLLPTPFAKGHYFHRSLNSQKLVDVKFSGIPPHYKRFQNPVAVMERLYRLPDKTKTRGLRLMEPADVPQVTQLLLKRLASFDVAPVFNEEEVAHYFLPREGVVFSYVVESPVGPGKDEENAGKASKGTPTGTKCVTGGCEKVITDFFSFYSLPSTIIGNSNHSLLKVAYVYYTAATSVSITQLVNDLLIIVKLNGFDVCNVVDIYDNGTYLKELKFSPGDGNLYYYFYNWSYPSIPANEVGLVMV

Row | Structure (SMILES) | ED50 (μM) T. brucei ([2]; T. brucei cell growth) [µM] | IC50 [1, 4] [µM] | further results
1 | Cc1nn(C)c(C)c1NS(=O)(=O)c1c(Cl)cc(-c2ccnc(NCCCn3ccnc3)c2)cc1Cl [DDD86308, 2,6-Dichloro-4-[2-(3-imidazol-1-yl-propylamino)-pyridin-4-yl]-N-(1,3,5-trimethyl-1H-pyrazol-4-yl)-benzenesulfonamide] | >1 | – | IC50 [1, 3]: 1 µM
2 | CCN(CC)Cc1cccc(-c2cc(Cl)c([S+](=O)([O-])Nc3c(CC(C)C)nn(C)c3C)c(Cl)c2)c1 [DDD99747] | 0.067 | – | IC50 [1, 3]: 0.008 µM
3 | COc1ccc(NCc2ccc([S+](=O)([O-])Nc3c(C)nn(C)c3C)cc2)cc1 [DDD73513] | >1 | 5.7 | –
4 | Cc1nn(C)c(C)c1N[S+](=O)([O-])c1c(C)c(C)c(C)c(C)c1C [DDD71248] | >1 | 62.5 | –
5 | COc1ccc([S+](=O)([O-])Nc2c(C)nn(C)c2C)cc1Br [DDD71233] | >1 | 2.6 | –
6 | COc1ccc([S+](=O)([O-])Nc2c(C)nn(C)c2C)cc1OC [DDD71290] | >1 | 41 | –
7 | Cc1nn(C)c(C)c1N[S+](=O)([O-])c1ccc(NCc2cccc(CN3CCCCC3)c2)nc1 [DDD85651] | 9.8 | – | IC50 [1, 3]: 1.8 µM
8 | Cc1nn(C)c(C)c1N[S+](=O)([O-])Cc1ccccc1 [DDD71293] | >1 | > 100 | –
9 | Cc1nn(C)c(C)c1N[S+](=O)([O-])c1ccc([S+](=O)([O-])N2CCCC2)cc1 [DDD71607] | >1 | > 100 | –
10 | Cc1nn(C)c(C)c1N[S+](=O)([O-])c1ccc(CCCN2CCN(C)CC2)cc1Cl [DDD90058] | 0.20 | – | IC50 [1, 3]: 0.027 µM
11 | Cc1nn(C)c(C)c1N[S+](=O)([O-])c1ccc2c(c1)CC(=O)N2 [DDD71244] | >1 | 15.9 | –
12 | Cc1nn(C)c(C)c1N[S+](=O)([O-])c1ccc(OC(F)(F)F)cc1 [DDD71234] | >1 | 2.7 | –
13 | Cc1nn(C)c(C)c1NS(=O)(=O)c1ccc(-c2ccnc(N3CCNC(c4ccccc4)C3)c2)cc1 (stereo not drawn) [DDD87756, 4-[2-(3-Phenyl-piperazin-1-yl)-pyridin-4-yl]-N-(1,3,5-trimethyl-1H-pyrazol-4-yl)-benzenesulfonamide] | >1 | – | IC50 ([1]; read-out: IC50 (μM) NMT Enzyme): 0.76 µM
14 | Cc1c(N[S+](=O)([O-])c2ccc(-c3cccc(CN(C)C)c3)c(Cl)c2)c(CC(C)C)nn1C [DDD99823] | – | – | IC50 [1, 5]: 0.006 µM; ED50 (μM) T. brucei [2, 6]: 0.041 µM
15 | COc1cc(C)c([S+](=O)([O-])N2CCCc3ncccc32)c(C)c1C [DDD71600] | >1 | 51 | –
16 | COc1cccc(CNc2ccc([S+](=O)([O-])Nc3c(C)nn(C)c3C)cn2)c1 [DDD73329] | >1 | 1.6 | –
17 | COc1ccc([S+](=O)([O-])Nc2c(C)nn(C)c2C)cc1NC(C)=O [DDD71622] | >1 | 41 | –
18 | Cc1nn(C)c(C)c1N[S+](=O)([O-])c1c(Cl)cc(C#Cc2ccccc2)cc1Cl [DDD73485] | >1 | 34.3 | –
19 | Cc1nn(C)c(C)c1N[S+](=O)([O-])c1ccc(Nc2ccccc2)nc1 [DDD73480] | 22.1 | 4.5 | –
20 | Cc1nn(C)c(C)c1N[S+](=O)([O-])c1ccc(NC2CCc3ccccc32)nc1 (stereo not drawn) [DDD85613] | >1 | 6.6 | –

Row | Structure (SMILES) | ED50 (μM) T. brucei ([2]; T. brucei cell growth) [µM] | IC50 [1, 4] [µM] | further results
21 | Cc1cc(N2CCCC2=O)cc(C)c1[S+](=O)([O-])Nc1c(C)nn(C)c1C [DDD22988] | >1 | 8.3 | –
22 | Cc1nn(C)c(C)c1N(C1CC1)[S+](=O)([O-])c1c(Cl)cc(Br)cc1Cl [DDD85591] | 5.3 | 0.59 | –
23 | Cc1nn(C)c(C)c1N[S+](=O)([O-])c1ccc(N2CCC(N3CCN(Cc4ccccc4)CC3)C2)nc1 (stereo not drawn) [DDD87760] | >1 | – | IC50 [1, 3]: 34.4 µM
24 | COc1cc(C)c([S+](=O)([O-])Nc2c(C)nn(CCc3ccccc3)c2C)c(C)c1C [DDD73496] | >1 | > 100 | –
25 | Cc1nn(C)c(C)c1N[S+](=O)([O-])c1ccc(NCCCNC2CCN(Cc3ccccc3)C2)nc1 (stereo not drawn) [DDD86295] | >1 | – | IC50 [1, 3]: 1 µM
26 | Cc1nn(C)c(C)c1N[S+](=O)([O-])c1ccc2c(c1)CCC(=O)N2 [DDD71247] | >1 | 3.4 | –
27 | Cc1nn(C)c(C)c1N[S+](=O)([O-])c1ccc2ccccc2c1 [DDD71246] | >1 | 8.4 | –
28 | Cc1nn(C)c(C)c1N[S+](=O)([O-])c1c(Cl)cc(-c2cccc(C(N)=O)c2)cc1Cl [DDD73279] | 2.1 | 1.1 | –
29 | COc1ccccc1CNc1ccc([S+](=O)([O-])Nc2c(C)nn(C)c2C)cn1 [DDD73328] | 19.1 | 2.4 | –
30 | Cc1nn(C)c(C)c1N[S+](=O)([O-])c1ccc(N2CCc3ccccc32)nc1 [DDD85597] | >1 | 8 | –
31 | Cc1nn(C)c(C)c1N[S+](=O)([O-])c1ccc(Cl)c(Cl)c1 [DDD00071594] | >1 | 9.9 | –
32 | COCCNCc1cccc(-c2ccc([S+](=O)([O-])Nc3c(CC(C)C)nn(C)c3C)cc2)c1 [DDD100797] | – | – | IC50 [1, 5]: 0.023 µM; ED50 (μM) T. brucei [2, 6]: 0.492 µM
33 | Cc1c(N[S+](=O)([O-])c2c(Cl)cc(Br)cc2Cl)cnn1C [DDD88315] | >10 | – | IC50 [1, 3]: 20 µM
34 | CCN(CC)Cc1cccc(-c2ccc([S+](=O)([O-])Nc3c(CC(C)C)nn(C)c3C)c(Cl)c2)c1 [DDD99763] | 0.053 | – | IC50 [1, 3]: 0.007 µM
35 | Cc1nn(C)c(C)c1N(C)[S+](=O)([O-])c1ccc(N2CCc3c(N)cccc3C2)nc1 [DDD85605] | 2.4 | 0.57 | –
36 | Cc1c(N[S+](=O)([O-])c2c(Cl)cc(CCCN3CCN(C)CC3)cc2Cl)c(CC(C)C)nn1C [DDD90060] | 0.02 | – | IC50 [1, 3]: 0.006 µM
37 | COc1cc(C)c([S+](=O)([O-])Nc2ccc(C)nc2C)c(C)c1C [DDD85634] | >1 | – | IC50 [1, 3]: 27.9 µM
38 | Cc1ccnc(C)c1N[S+](=O)([O-])c1c(Cl)cc(-c2ccnc(N3CCNCC3)c2)cc1Cl [DDD88319] | 0.69 | – | IC50 [1, 3]: 0.045 µM
39 | Cc1nn(C)c(C)c1N[S+](=O)([O-])c1ccc(N2CCC(N3CCNCC3)C2)nc1 (stereo not drawn) [DDD88008] | 18.0 | – | IC50 [1, 3]: 0.11 µM
40 | Cc1nn(C)c(C)c1N[S+](=O)([O-])c1ccc(CN2CCCCC2)cc1 [DDD73226] | >1 | > 100 | –

Row | Structure (SMILES) | ED50 (μM) T. brucei ([2]; T. brucei cell growth) [µM] | IC50 [1, 4] [µM] | further results
41 | Cc1cc(C(=O)O)cc([S+](=O)([O-])Nc2c(C)nn(C)c2C)c1C [DDD71608] | >1 | > 100 | –
42 | Cc1nn(C)c(C)c1N[S+](=O)([O-])c1ccc(NCCc2ccc(-c3ccccc3)cc2)nc1 [DDD73482] | >1 | 60 | –
43 | Cc1nn(C)c(C)c1N[S+](=O)([O-])c1ccc(NCc2ccc(N3CCOCC3)cc2)nc1 [DDD73475] | 10.5 | 0.88 | –
44 | Cc1nn(C)c(C)c1N[S+](=O)([O-])c1ccc(N2Cc3ccccc3C2)nc1 [DDD85598] | >1 | 18.2 | –
45 | Cc1nn(C)c(C)c1N[S+](=O)([O-])c1ccc(COCCCCN(C)C)cc1 [DDD85650] | >1 | – | IC50 [1, 3]: 52.6 µM
46 | Cc1nn(C)c(C)c1N[S+](=O)([O-])c1ccc(N2CCN(C)CC2)nc1 [DDD73236] | >1 | 11.9 | –
47 | Cc1nn(C)c(C)c1N[S+](=O)([O-])c1ccc(COCCN2CCN(C)CC2)cc1 [DDD85649] | >1 | – | IC50 [1, 3]: 40 µM
48 | Cc1nn(C)c(C)c1N[S+](=O)([O-])c1ccc(NCC(O)c2ccccc2)nc1 (stereo not drawn) [DDD73330] | >1 | 2.3 | –
49 | Cc1nn(C)c(C)c1N[S+](=O)([O-])c1ccc(NCC(C)c2ccccc2)nc1 (stereo not drawn) [DDD73495] | 7.8 | 0.96 | –
50 | Cc1nn(C)c(C)c1N[S+](=O)([O-])c1ccc(NC(C)c2ccccc2)nc1 (stereo not drawn) [DDD73322] | 5.4 | 0.86 | –
51 | Cc1nn(C)c(C)c1N[S+](=O)([O-])c1ccc(NCc2ccc(-n3ccnc3C)cc2)nc1 [DDD73494] | 8.8 | 0.71 | –
52 | Cc1nn(C)c(C)c1N[S+](=O)([O-])c1cc(F)c(CCCN2CCN(C)CC2)cc1F [DDD90059] | 0.48 | – | IC50 [1, 3]: 0.054 µM
53 | Cc1c(N[S+](=O)([O-])c2ccc(-c3cccc(CC4CCNCC4)c3)cc2)c(CC(C)C)nn1C [DDD100094] | – | – | IC50 [1, 5]: 0.003 µM; ED50 (μM) T. brucei [2, 6]: 0.008 µM
54 | COc1cc(C)c([S+](=O)([O-])Nc2ccccc2)c(C)c1C [DDD71292] | >1 | > 100 | –
55 | Cc1cnn(-c2ccc(CNc3ccc([S+](=O)([O-])Nc4c(C)nn(C)c4C)cn3)cc2)n1 [DDD73493] | >1 | 4.4 | –
56 | Cc1nn(C)c(C)c1N[S+](=O)([O-])c1ccc(CSc2ccc(C(C)(C)C)cc2)cc1 [DDD85609] | >1 | 69.5 | –
57 | Cc1c(N[S+](=O)([O-])c2ccc(-c3cccc(CN4CCN(C)CC4)c3)cc2)c(CC(C)C)nn1C [DDD99736] | 0.41 | – | IC50 [1, 3]: 0.068 µM
58 | Cc1nn(C)c(C)c1N[S+](=O)([O-])c1ccc(Br)cc1F [DDD88318] | >10 | – | IC50 [1, 3]: 10 µM
59 | Cc1nn(C)c(C)c1N[S+](=O)([O-])c1ccc(Cn2cnc3ccccc32)cc1 [DDD73512] | >1 | 6.1 | –
60 | Cc1nn(C)c(C)c1N[S+](=O)([O-])c1ccc(CNc2ccc(N3CCOCC3)cc2)cc1 [DDD73506] | >1 | 10 | –
